According to US7723068B2, “Gene cluster involved in safracin biosynthesis and its uses for genetic engineering” (PharmaMar, S.A., priority 2002, dated 2010):

System: LN-caP
Assay: cells
Details: Homo sapiens, LNCaP, read-out: GI50 LN-caP

SMILES	GI50 [nM]
CCOC1=C(C)C(=O)C2=C(C1=O)C(CNC(=O)C(C)N)N1CC3Cc4cc(C)c(OCC)c(O)c4C(C1C2)N3C (centres unmarked) [Safracin A (OEt)]	378

Same assay, conditions: Homo sapiens, LNCaP, read-out: LC50 LN-caP

SMILES	CC50 [nM]
CCOC1=C(C)C(=O)C2=C(C1=O)C(CNC(=O)C(C)N)N1CC3Cc4cc(C)c(OCC)c(O)c4C(C1C2)N3C (centres unmarked) [Safracin A (OEt)]	1450

System: K-562
Assay: not given
Details: Leukemia

SMILES	TGI K-562 [nM]
CCOC1=C(C)C(=O)C2=C(C1=O)C(CNC(=O)C(C)N)N1CC3Cc4cc(C)c(OCC)c(O)c4C(C1C2)N3C (centres unmarked) [Safracin A (OEt)]	686

System: A549
Assay: not given
Details: NSCL

SMILES	TGI A549 [nM]
CCOC1=C(C)C(=O)C2=C(C1=O)C(CNC(=O)C(C)N)N1CC3Cc4cc(C)c(OCC)c(O)c4C(C1C2)N3C (centres unmarked) [Safracin A (OEt)]	7170

System: HELA
Assay: not given
Details: Cervix

SMILES	TGI HELA [nM]
CCOC1=C(C)C(=O)C2=C(C1=O)C(CNC(=O)C(C)N)N1CC3Cc4cc(C)c(OCC)c(O)c4C(C1C2)N3C (centres unmarked) [Safracin A (OEt)]	2910

System: HELA-APL
Assay: cells
Details: read-out: GI50 HELA-APL

SMILES	GI50 [nM]
CCOC1=C(C)C(=O)C2=C(C1=O)C(CNC(=O)C(C)N)N1CC3Cc4cc(C)c(OCC)c(O)c4C(C1C2)N3C (centres unmarked) [Safracin A (OEt)]	764

Same assay, conditions: read-out: LC50 HELA-APL

SMILES	CC50 [nM]
CCOC1=C(C)C(=O)C2=C(C1=O)C(CNC(=O)C(C)N)N1CC3Cc4cc(C)c(OCC)c(O)c4C(C1C2)N3C (centres unmarked) [Safracin A (OEt)]	6690

System: SK-BR3
Assay: not given
Details: Breast

SMILES	TGI SK-BR3 [nM]
CCOC1=C(C)C(=O)C2=C(C1=O)C(CNC(=O)C(C)N)N1CC3Cc4cc(C)c(OCC)c(O)c4C(C1C2)N3C (centres unmarked) [Safracin A (OEt)]	1160

System: PANC1
Assay: not given
Details: Pancreas

SMILES	TGI PANC1 [nM]
CCOC1=C(C)C(=O)C2=C(C1=O)C(CNC(=O)C(C)N)N1CC3Cc4cc(C)c(OCC)c(O)c4C(C1C2)N3C (centres unmarked) [Safracin A (OEt)]	5830

System: LOVO
Assay: cells
Details: Homo sapiens, read-out: GI50 LOVO

SMILES	GI50 [nM]
CCOC1=C(C)C(=O)C2=C(C1=O)C(CNC(=O)C(C)N)N1CC3Cc4cc(C)c(OCC)c(O)c4C(C1C2)N3C (centres unmarked) [Safracin A (OEt)]	2030

Same assay, conditions: Homo sapiens, read-out: LC50 LOVO

SMILES	CC50 [nM]
CCOC1=C(C)C(=O)C2=C(C1=O)C(CNC(=O)C(C)N)N1CC3Cc4cc(C)c(OCC)c(O)c4C(C1C2)N3C (centres unmarked) [Safracin A (OEt)]	9610

System: IGROV
Assay: cells
Details: read-out: GI50 IGROV

SMILES	GI50 [nM]
CCOC1=C(C)C(=O)C2=C(C1=O)C(CNC(=O)C(C)N)N1CC3Cc4cc(C)c(OCC)c(O)c4C(C1C2)N3C (centres unmarked) [Safracin A (OEt)]	492

Same assay, conditions: read-out: LC50 IGROV

SMILES	CC50 [nM]
CCOC1=C(C)C(=O)C2=C(C1=O)C(CNC(=O)C(C)N)N1CC3Cc4cc(C)c(OCC)c(O)c4C(C1C2)N3C (centres unmarked) [Safracin A (OEt)]	1760

System: A549
Assay: cells
Details: Homo sapiens, A549, read-out: GI50 A549

SMILES	GI50 [nM]
CCOC1=C(C)C(=O)C2=C(C1=O)C(CNC(=O)C(C)N)N1CC3Cc4cc(C)c(OCC)c(O)c4C(C1C2)N3C (centres unmarked) [Safracin A (OEt)]	4000

Same assay, conditions: Homo sapiens, A549, read-out: LC50 A549

SMILES	CC50 [nM]
CCOC1=C(C)C(=O)C2=C(C1=O)C(CNC(=O)C(C)N)N1CC3Cc4cc(C)c(OCC)c(O)c4C(C1C2)N3C (centres unmarked) [Safracin A (OEt)]	12800

System: Bacillus subtilis
Assay: Antimicrobial activity on solid medium, disk
Type: cell-based
Details: Bacillus subtilis, 10 μg/disk (6 mm diameter)
Procedure: Antimicrobial activity: On solid medium Bacillus subtilis. 10 μg/disk (6 mm diameter): 10 mm inhibition zone Spectroscopic Data: […]

SMILES	zone of inhibition at 10 µg/disc [mm]
CCOC1=C(C)C(=O)C2=C(C1=O)C(CNC(=O)C(C)N)N1CC3Cc4cc(C)c(OCC)c(O)c4C(C1C2)N3C (centres unmarked) [Safracin A (OEt)]	10

System: HT29
Assay: not given
Details: Colon

SMILES	TGI HT29 [nM]
CCOC1=C(C)C(=O)C2=C(C1=O)C(CNC(=O)C(C)N)N1CC3Cc4cc(C)c(OCC)c(O)c4C(C1C2)N3C (centres unmarked) [Safracin A (OEt)]	4410

System: K-562
Assay: cells
Details: Homo sapiens, K562, read-out: GI50 K-562

SMILES	GI50 [nM]
CCOC1=C(C)C(=O)C2=C(C1=O)C(CNC(=O)C(C)N)N1CC3Cc4cc(C)c(OCC)c(O)c4C(C1C2)N3C (centres unmarked) [Safracin A (OEt)]	311

Same assay, conditions: Homo sapiens, K562, read-out: LC50 K-562

SMILES	CC50 [nM]
CCOC1=C(C)C(=O)C2=C(C1=O)C(CNC(=O)C(C)N)N1CC3Cc4cc(C)c(OCC)c(O)c4C(C1C2)N3C (centres unmarked) [Safracin A (OEt)]	1510

System: LOVO-DOX
Assay: cells
Details: read-out: GI50 LOVO-DOX

SMILES	GI50 [nM]
CCOC1=C(C)C(=O)C2=C(C1=O)C(CNC(=O)C(C)N)N1CC3Cc4cc(C)c(OCC)c(O)c4C(C1C2)N3C (centres unmarked) [Safracin A (OEt)]	5720

Same assay, conditions: read-out: LC50 LOVO-DOX

SMILES	CC50 [nM]
CCOC1=C(C)C(=O)C2=C(C1=O)C(CNC(=O)C(C)N)N1CC3Cc4cc(C)c(OCC)c(O)c4C(C1C2)N3C (centres unmarked) [Safracin A (OEt)]	16900

System: IGROV
Assay: not given
Details: Ovary

SMILES	TGI IGROV [nM]
CCOC1=C(C)C(=O)C2=C(C1=O)C(CNC(=O)C(C)N)N1CC3Cc4cc(C)c(OCC)c(O)c4C(C1C2)N3C (centres unmarked) [Safracin A (OEt)]	928

System: HELA-APL
Assay: not given
Details: Cervix

SMILES	TGI HELA-APL [nM]
CCOC1=C(C)C(=O)C2=C(C1=O)C(CNC(=O)C(C)N)N1CC3Cc4cc(C)c(OCC)c(O)c4C(C1C2)N3C (centres unmarked) [Safracin A (OEt)]	2320
